The source of these data is patent US11530222B2, “Substituted pyrrolopyrimidine and pyrazolopyrimidine as Bruton's tyrosine kinase (BTK) degraders” (ACCUTAR BIOTECHNOLOGY INC., priority 2021, dated 2022).

Broadly, the DC50 is the concentration at which degradation of the target reaches its halfway point.

T1 sequence (Q06187 whole entry): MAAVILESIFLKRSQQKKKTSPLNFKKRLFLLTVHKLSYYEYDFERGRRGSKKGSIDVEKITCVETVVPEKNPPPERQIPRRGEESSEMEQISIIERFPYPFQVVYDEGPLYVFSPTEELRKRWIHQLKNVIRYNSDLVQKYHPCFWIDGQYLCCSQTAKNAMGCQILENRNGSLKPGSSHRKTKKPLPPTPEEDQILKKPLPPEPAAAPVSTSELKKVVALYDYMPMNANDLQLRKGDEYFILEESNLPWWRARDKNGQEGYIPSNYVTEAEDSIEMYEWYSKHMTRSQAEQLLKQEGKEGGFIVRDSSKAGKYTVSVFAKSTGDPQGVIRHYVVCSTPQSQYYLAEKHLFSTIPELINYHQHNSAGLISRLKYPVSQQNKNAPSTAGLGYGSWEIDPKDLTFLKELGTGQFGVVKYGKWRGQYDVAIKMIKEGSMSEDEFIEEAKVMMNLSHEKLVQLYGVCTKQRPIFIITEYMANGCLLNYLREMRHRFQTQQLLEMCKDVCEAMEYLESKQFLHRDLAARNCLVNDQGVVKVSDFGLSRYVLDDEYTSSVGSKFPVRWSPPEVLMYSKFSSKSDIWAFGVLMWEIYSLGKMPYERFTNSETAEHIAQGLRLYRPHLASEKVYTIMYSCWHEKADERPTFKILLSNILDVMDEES

The assay addresses T1, BTK (Homo sapiens, UniProt Q06187).
T1 construct: BTK Degradative Activity of Exemplary Compounds of the Present Disclosure in a RAMOS Cell Line; host or cells: RAMOS
The experiment in a line: BTK degradative activity in a RAMOS cell line (Western blot). The settings on record: 6 hours after administration, read-out: RAMOS BTK Degradation DC50. The format is cell-based. As for the experimental part: RAMOS (ATCC) cells were plated in 24-well plates at 8×10^5 cells/well in the RPMI growth medium containing 10% heat-inactivated FBS and 1× Penicillin Streptomycin, and then incubated at 37° C. overnight. The following day, the test compound was administered to the cells by using 1000× compound stock solution prepared in DMSO at various concentrations. After administration of the compound, the cells were then incubated at 37° C. for 6 hours.
Upon completion, the cells were collected by centrifugation and lysed in Laemmli sample buffer (1×; VWR International). Proteins in cell lysate were separated by SDS-PAGE and transferred to Odyssey nitrocellulose membranes (Licor) with Iblot® dry blotting transfer system (ThermoFisher). Nonspecific binding was blocked by incubating membranes with Intercept Blocking Buffer (Licor) for 1 hour at room temperature with gentle shaking. The membranes were then incubated overnight at 4° C. with primary antibodies anti-BTK (Cell signaling, cat. #8547) and anti-GAPDH (Cell signaling, cat. #5179) diluted in Intercept Blocking Buffer containing 0.1% Tween 20. After washing 3 times with TBS-T, the membranes were incubated with IRDye® 800CW goat anti-mouse IgG (1:20,000, Licor) or IRDye® 800CW goat anti-rabbit IgG (1:20,000, Licor) for 1 hour. After TBS-T washes, membranes were rinsed in TBS and scanned on Odyssey® CLx Imaging System (Licor). The bands were quantified using Image Studio™ Software (Licor).
Table 3 summarizes the BTK degradative activity of exemplary compounds of the present disclosure in a RAMOS cell line 6 hours after administration. The DC50 values (i.e., the concentration of test compound at which 50% of the target protein is degraded) were calculated. A designation of “A” corresponds to a DC50 value less than 10 nM. A designation of “B” corresponds to a DC50 value greater than or equal to 10 nM and less than 100 nM. A designation of “C” corresponds to a DC50 value greater than or equal to 100 nM.
Regarding `O=C1CC[C@H](N2C(=O)c3ccc(N4CCN(CC5CCN(C(=O)N6CCC[C@@H](Nc7ncnc8[nH]cc(C(=O)c9ccc(Oc%10ccccc%10)cc9Cl)c78)C6)CC5)CC4)cc3C2=O)C(=O)N1` [Compound 33, 5-(4-((1-((R)-3-((5-(2-chloro-4-phenoxybenzoyl)-7H-pyrrolo[2,3-d]pyrimidin-4-yl)amino)piperidine-1-carbonyl)piperidin-4-yl)methyl)piperazin-1-yl)-2-((S)-2,6-dioxopiperidin-3-yl)isoindoline-1,3-dione], the half-maximal degradation concentration (DC50) fell in the range of 10 to 100 nM.

For the compound `O=C1CCC(N2C(=O)c3ccc(N4CCN(CCCCCC(=O)N5CCC(Nc6ncnc7[nH]cc(C(=O)c8ccc(Oc9ccccc9)cc8Cl)c67)CC5)CC4)cc3C2=O)C(=O)N1` (centres unmarked) [Compound 28, 5-(4-(6-(4-((5-(2-chloro-4-phenoxybenzoyl)-7H-pyrrolo[2,3-d]pyrimidin-4-yl)amino)piperidin-1-yl)-6-oxohexyl)piperazin-1-yl)-2-(2,6-dioxopiperidin-3-yl)isoindoline-1,3-dione], the DC50 lay within 10 to 100 nM.

For the compound `O=C1CCC(N2Cc3c(C#CCCCCCCC(=O)N4CCC(Nc5ncnc6[nH]cc(C(=O)c7ccc(Oc8ccccc8)cc7Cl)c56)CC4)cccc3C2=O)C(=O)N1` (centres unmarked) [Compound 39, 3-(4-(9-(4-((5-(2-chloro-4-phenoxybenzoyl)-7H-pyrrolo[2,3-d]pyrimidin-4-yl)amino)piperidin-1-yl)-9-oxonon-1-yn-1-yl)-1-oxoisoindolin-2-yl)piperidine-2,6-dione], the DC50 was ≥ 100 nM.

On to `O=C1CCC(N2C(=O)c3ccc(N4CCN(CCCCC(=O)N5CCC(Nc6ncnc7[nH]cc(C(=O)c8ccc(Oc9ccccc9)cc8Cl)c67)CC5)CC4)cc3C2=O)C(=O)N1` (centres unmarked) [Compound 31, 5-(4-(5-(4-((5-(2-chloro-4-phenoxybenzoyl)-7H-pyrrolo[2,3-d]pyrimidin-4-yl)amino)piperidin-1-yl)-5-oxopentyl)piperazin-1-yl)-2-(2,6-dioxopiperidin-3-yl)isoindoline-1,3-dione], for which the DC50 is 10 to 100 nM.

Regarding `O=C1CCC(N2C(=O)c3cccc(C#CCCCCC(=O)N4CCC(Nc5ncnc6[nH]cc(C(=O)c7ccc(Oc8ccccc8)cc7Cl)c56)CC4)c3C2=O)C(=O)N1` (centres unmarked) [Compound 36, 4-(7-(4-((5-(2-chloro-4-phenoxybenzoyl)-7H-pyrrolo[2,3-d]pyrimidin-4-yl)amino)piperidin-1-yl)-7-oxohept-1-yn-1-yl)-2-(2,6-dioxopiperidin-3-yl)isoindoline-1,3-dione], the DC50 is ≥ 100 nM.

Regarding `COc1ccc(C(=O)N2CCN(Cc3ccc(C(=O)N4CCC(Nc5ncnc6[nH]cc(C(=O)c7ccc(Oc8ccccc8)cc7Cl)c56)CC4)cc3)CC2)cc1N1CCC(=O)NC1=O` [Compound 80, 1-(5-(4-(4-(4-((5-(2-chloro-4-phenoxybenzoyl)-7H-pyrrolo[2,3-d]pyrimidin-4-yl)amino)piperidine-1-carbonyl)benzyl)piperazine-1-carbonyl)-2-methoxyphenyl)dihydropyrimidine-2,4(1H,3H)-dione], the DC50 was ≥ 100 nM.

Consider `O=C1CCC(N2C(=O)c3ccc(N4CCN(CCCCCCC(=O)N5CCC[C@@H](Nc6ncnc7[nH]cc(C(=O)c8ccc(Oc9ccccc9)cc8Cl)c67)C5)CC4)cc3C2=O)C(=O)N1` (some centres unmarked) [Compound 8], for which the DC50 is 10 to 100 nM.

In the case of `O=C1CC[C@H](N2Cc3cc(N4CCN(CC5CCN(C(=O)N6CCC[C@@H](Nc7ncnc8[nH]cc(C(=O)c9ccc(Oc%10ccccc%10)cc9Cl)c78)C6)CC5)CC4)ccc3C2=O)C(=O)N1` [Compound 32, (S)-3-(5-(4-((1-((R)-3-((5-(2-chloro-4-phenoxybenzoyl)-7H-pyrrolo[2,3-d]pyrimidin-4-yl)amino)piperidine-1-carbonyl)piperidin-4-yl)methyl)piperazin-1-yl)-1-oxoisoindolin-2-yl)piperidine-2,6-dione], the DC50 was 10 to 100 nM.

On to `O=C1CCC(N2Cc3c(C#CCCCCC(=O)N4CCC(Nc5ncnc6[nH]cc(C(=O)c7ccc(Oc8ccccc8)cc7Cl)c56)CC4)cccc3C2=O)C(=O)N1` (centres unmarked) [Compound 41, 3-(4-(7-(4-((5-(2-chloro-4-phenoxybenzoyl)-7H-pyrrolo[2,3-d]pyrimidin-4-yl)amino)piperidin-1-yl)-7-oxohept-1-yn-1-yl)-1-oxoisoindolin-2-yl)piperidine-2,6-dione], for which the DC50 is ≥ 100 nM.

Regarding `O=C1CCC(N2C(=O)c3ccc(OCCCCCCN4CCN(c5ccc(C(=O)N6CCC[C@@H](Nc7ncnc8[nH]cc(C(=O)c9ccc(Oc%10ccccc%10)cc9Cl)c78)C6)cn5)CC4)cc3C2=O)C(=O)N1` (stereo partly drawn) [Compound 3, 5-((6-(4-(5-((R)-3-((5-(2-chloro-4-phenoxybenzoyl)-7H-pyrrolo [2,3-d]pyrimidin-4-yl)amino)piperidine-1-carbonyl)pyridin-2-yl)piperazin-1-yl)hexyl)oxy)-2-(2,6-dioxopiperidin-3-yl)isoindoline-1,3-dione], the DC50 was ≥ 100 nM.

`O=C1CCC(N2C(=O)c3ccc(N4CCN(CCCCCN5CCC[C@@H](Nc6ncnc7[nH]cc(C(=O)c8ccc(Oc9ccccc9)cc8Cl)c67)C5)CC4)cc3C2=O)C(=O)N1` (stereo partly drawn) [Compound 30, 5-(4-(5-((R)-3-((5-(2-chloro-4-phenoxybenzoyl)-7H-pyrrolo[2,3-d]pyrimidin-4-yl)amino)piperidin-1-yl)pentyl)piperazin-1-yl)-2-(2,6-dioxopiperidin-3-yl)isoindoline-1,3-dione]: the DC50 is ≥ 100 nM.

Regarding `O=C1CCC(N2C(=O)c3ccc(OCCCN4CCN(c5ccc(C(=O)N6CCC[C@@H](Nc7ncnc8[nH]cc(C(=O)c9ccc(Oc%10ccccc%10)cc9Cl)c78)C6)cn5)CC4)cc3C2=O)C(=O)N1` (stereo partly drawn) [Compound 4, 5-(3-(4-(5-((R)-3-((5-(2-chloro-4-phenoxybenzoyl)-7H-pyrrolo [2,3-d]pyrimidin-4-yl)amino)piperidine-1-carbonyl)pyridin-2-yl)piperazin-1-yl)propoxy)-2-(2,6-dioxopiperidin-3-yl)isoindoline-1,3-dione], the half-maximal degradation concentration (DC50) is ≥ 100 nM.

Regarding `O=C1CC[C@H](N2Cc3cc(N4CCN(CCCC(=O)N5CCC[C@@H](Nc6ncnc7[nH]cc(C(=O)c8ccc(Oc9ccccc9)cc8Cl)c67)C5)CC4)ccc3C2=O)C(=O)N1` [Compound 20, (S)-3-(5-(4-(4-((R)-3-((5-(2-chloro-4-phenoxybenzoyl)-7H-pyrrolo[2,3-d]pyrimidin-4-yl)amino)piperidin-1-yl)-4-oxobutyl)piperazin-1-yl)-1-oxoisoindolin-2-yl)piperidine-2,6-dione], the DC50 fell in the range of 10 to 100 nM.

For `O=C1CCC(N2C(=O)c3ccc(N4CCN(CCCCCCN5CCC(Nc6ncnc7[nH]cc(C(=O)c8ccc(Oc9ccccc9)cc8Cl)c67)CC5)CC4)cc3C2=O)C(=O)N1` (centres unmarked) [Compound 18, 5-(4-(6-(4-((5-(2-chloro-4-phenoxybenzoyl)-7H-pyrrolo[2,3-d]pyrimidin-4-yl)amino)piperidin-1-yl)hexyl)piperazin-1-yl)-2-(2,6-dioxopiperidin-3-yl)isoindoline-1,3-dione], the 50% degradation concentration (DC50) is ≥ 100 nM.

Regarding `O=C1CCC(N2C(=O)c3ccc(N4CCN(CCCCCC(=O)N5CCC[C@@H](Nc6ncnc7[nH]cc(C(=O)c8ccc(Oc9ccccc9)cc8Cl)c67)C5)CC4)cc3C2=O)C(=O)N1` (stereo partly drawn) [Compound 7, 5-(4-(6-((R)-3-((5-(2-chloro-4-phenoxybenzoyl)-7H-pyrrolo[2,3-d]pyrimidin-4-yl)amino)piperidin-1-yl)-6-oxohexyl)piperazin-1-yl)-2-(2,6-dioxopiperidin-3-yl)isoindoline-1,3-dione], the DC50 was 10 to 100 nM.

On to `O=C1CCC(N2C(=O)c3ccc(N4CCN(CC5CCN(c6ccc(C(=O)N7CCC[C@@H](Nc8ncnc9[nH]cc(C(=O)c%10ccc(Oc%11ccccc%11)cc%10Cl)c89)C7)cn6)CC5)CC4)cc3C2=O)C(=O)N1` (stereo partly drawn) [Compound 10, 5-(4-((1-(5-((R)-3-((5-(2-chloro-4-phenoxybenzoyl)-7H-pyrrolo[2,3-d]pyrimidin-4-yl)amino)piperidine-1-carbonyl)pyridin-2-yl)piperidin-4-yl)methyl)piperazin-1-yl)-2-(2,6-dioxopiperidin-3-yl)isoindoline-1,3-dione], for which the DC50 was ≥ 100 nM.

On to `O=C1CCC(N2C(=O)c3ccc(OCCN4CCN(c5ccc(C(=O)N6CCC[C@@H](Nc7ncnc8[nH]cc(C(=O)c9ccc(Oc%10ccccc%10)cc9Cl)c78)C6)cn5)CC4)cc3C2=O)C(=O)N1` (stereo partly drawn) [Compound 5, 5-(2-(4-(5-((R)-3-((5-(2-chloro-4-phenoxybenzoyl)-7H-pyrrolo[2,3-d]pyrimidin-4-yl)amino)piperidine-1-carbonyl)pyridin-2-yl)piperazin-1-yl)ethoxy)-2-(2,6-dioxopiperidin-3-yl)isoindoline-1,3-dione], for which the DC50 is ≥ 100 nM.
